The values below come from ChEMBL document CHEMBL2146447, “Synthesis and antimicrobial activity of amido linked pyrrolyl and pyrazolyl-oxazoles, thiazoles and imidazoles” (2011).

Common to all, as to format: functional
The test system of experiment [1] is Klebsiella pneumoniae. Briefly: Antibacterial activity against Klebsiella pneumoniae at 100 ug after 24 hrs by agar well diffusion method. The conditions noted are these: for zone of inhibition at 100 µg/disc: read-out: DIZ. In general terms: A growth-free zone around the sample is the usual read-out of agar diffusion tests.
Experiment [2] has as its system Klebsiella pneumoniae. As to the kind of experiment: Antibacterial activity against Klebsiella pneumoniae at 50 ug after 24 hrs by agar well diffusion method. Particulars: for zone of inhibition at 50 µg/disc: read-out: DIZ.
The test system of experiment [3] is Penicillium chrysogenum. Briefly: Antifungal activity against Penicillium chrysogenum at 50 ug after 48 hrs by agar well diffusion method. The conditions noted are these: for zone of inhibition at 50 µg/disc: read-out: DIZ.
Experiment [4] has as its system Bacillus subtilis. As to the kind of experiment: Antibacterial activity against Bacillus subtilis at 50 ug after 24 hrs by agar well diffusion method. Particulars: for zone of inhibition at 50 µg/disc: read-out: DIZ.
Experiment [5] deals with Aspergillus niger. Briefly: Antifungal activity against Aspergillus niger at 50 ug after 48 hrs by agar well diffusion method. Particulars: for zone of inhibition at 50 µg/disc: read-out: DIZ.
Experiment [6] has as its system Staphylococcus aureus. Briefly: Antibacterial activity against Staphylococcus aureus assessed at 50 ug after 24 hrs by agar well diffusion method. The conditions noted are these: for zone of inhibition at 50 µg/disc: read-out: DIZ.
In experiment [7] the test system is Aspergillus niger. Briefly: Antifungal activity against Aspergillus niger at 100 ug after 48 hrs by agar well diffusion method. Particulars: for zone of inhibition at 100 µg/disc: read-out: DIZ.
The subject of experiment [8] is Bacillus subtilis. Briefly: Antibacterial activity against Bacillus subtilis at 100 ug after 24 hrs by agar well diffusion method. The conditions noted are these: for zone of inhibition at 100 µg/disc: read-out: DIZ.
The test system of experiment [9] is Staphylococcus aureus. As to the kind of experiment: Antibacterial activity against Staphylococcus aureus at 100 ug after 24 hrs by agar well diffusion method. The conditions noted are these: for zone of inhibition at 100 µg/disc: read-out: DIZ.
Experiment [10] concerns Penicillium chrysogenum. Briefly: Antifungal activity against Penicillium chrysogenum at 100 ug after 48 hrs by agar well diffusion method. The conditions noted are these: for zone of inhibition at 100 µg/disc: read-out: DIZ.
Experiment [11] has as its system Pseudomonas aeruginosa. As to the kind of experiment: Antibacterial activity against Pseudomonas aeruginosa at 100 ug after 24 hrs by agar well diffusion method. Particulars: for zone of inhibition at 100 µg/disc: read-out: DIZ.
For experiment [12], the system named is Pseudomonas aeruginosa. As to the kind of experiment: Antibacterial activity against Pseudomonas aeruginosa at 50 ug after 24 hrs by agar well diffusion method. Particulars: for zone of inhibition at 50 µg/disc: read-out: DIZ.

Calls of active or inactive are those of the source. The rule behind the calls is not given here.

In the case of `O=C(Nc1nc(-c2ccc(Cl)cc2)cs1)C1=NNCC1c1ccccc1` (stereo not drawn), the zone of inhibition at 100 µg/disc with Klebsiella pneumoniae [1] amounted to 28 mm; with Aspergillus niger [7], 29 mm; in the experiment with Bacillus subtilis [8], 26 mm; with Staphylococcus aureus [9], 27 mm; with Penicillium chrysogenum [10], 31 mm; in the experiment with Pseudomonas aeruginosa [11], 23 mm. Moreover, the zone of inhibition at 50 µg/disc in the experiment on Klebsiella pneumoniae [2] amounted to 25 mm; in the experiment on Penicillium chrysogenum [3], 28 mm; in the experiment on Bacillus subtilis [4], 25 mm; with Aspergillus niger [5], 28 mm; in the experiment on Staphylococcus aureus [6], 24 mm; with Pseudomonas aeruginosa [12] it was 22 mm.
For the compound `O=C(Nc1nc(-c2ccccc2)cs1)C1=NNCC1c1ccccc1` (stereo not drawn), the “diameter of the inhibition zone (DIZ)” value in the experiment on Klebsiella pneumoniae [1], with Klebsiella pneumoniae [2], in the experiment with Penicillium chrysogenum [3], in the experiment on Aspergillus niger [5], in the experiment with Aspergillus niger [7] and with Penicillium chrysogenum [10] was “inactive” each time. Besides, the “diameter of the inhibition zone (DIZ)” value in the experiment with Pseudomonas aeruginosa [11] and in the experiment on Pseudomonas aeruginosa [12] was “inactive” throughout. Besides, the zone of inhibition at 50 µg/disc came to 14 mm in the experiment on Bacillus subtilis [4] and 13 mm in the experiment on Staphylococcus aureus [6]. Further, the values for the zone of inhibition at 100 µg/disc in the experiment on Bacillus subtilis [8] and with Staphylococcus aureus [9] were 16 mm and 15 mm, respectively.
Take `Cc1ccc(-c2c[nH]c(NC(=O)C3=NNCC3c3ccccc3)n2)cc1` (stereo not drawn): the zone of inhibition at 100 µg/disc was 18 mm with Klebsiella pneumoniae [1]; 14 mm in the experiment on Aspergillus niger [7]; 16 mm in the experiment with Bacillus subtilis [8]; 13 mm in the experiment with Staphylococcus aureus [9]; 16 mm in the experiment with Penicillium chrysogenum [10]; 13 mm with Pseudomonas aeruginosa [11]. Besides, the zone of inhibition at 50 µg/disc was 16 mm in the experiment with Klebsiella pneumoniae [2]; 13 mm with Penicillium chrysogenum [3]; 14 mm in the experiment on Bacillus subtilis [4]; 11 mm in the experiment with Aspergillus niger [5]; 11 mm in the experiment on Staphylococcus aureus [6]; 11 mm in the experiment on Pseudomonas aeruginosa [12].
On to `O=C(Nc1nc(-c2ccccc2)cs1)c1c[nH]cc1-c1ccccc1`, for which the zone of inhibition at 100 µg/disc with Klebsiella pneumoniae [1] is 24 mm; with Aspergillus niger [7], 20 mm; in the experiment on Bacillus subtilis [8], 22 mm; with Staphylococcus aureus [9], 19 mm; in the experiment with Penicillium chrysogenum [10], 22 mm; in the experiment with Pseudomonas aeruginosa [11] it was 16 mm. Further, the zone of inhibition at 50 µg/disc in the experiment with Klebsiella pneumoniae [2] was found to be 22 mm; in the experiment on Penicillium chrysogenum [3], 19 mm; in the experiment on Bacillus subtilis [4] it was 20 mm; in the experiment with Aspergillus niger [5] it was 18 mm; in the experiment on Staphylococcus aureus [6], 17 mm; with Pseudomonas aeruginosa [12] it was 15 mm.
In the case of `Cc1ccc(-c2c[nH]c(NC(=O)c3n[nH]cc3-c3ccccc3)n2)cc1`, the zone of inhibition at 100 µg/disc in the experiment on Klebsiella pneumoniae [1] is 13 mm; with Aspergillus niger [7], 9 mm; with Bacillus subtilis [8] it was 12 mm; in the experiment on Staphylococcus aureus [9] it was 9 mm; in the experiment on Penicillium chrysogenum [10], 11 mm; with Pseudomonas aeruginosa [11] it was 10 mm. The zone of inhibition at 50 µg/disc amounted to 11 mm in the experiment with Klebsiella pneumoniae [2]; 8 mm with Penicillium chrysogenum [3]; 9 mm with Bacillus subtilis [4]; 8 mm in the experiment on Aspergillus niger [5]; 8 mm in the experiment with Staphylococcus aureus [6]; 9 mm in the experiment with Pseudomonas aeruginosa [12].
As to `O=C(Nc1nc(-c2ccccc2)co1)C1=NNCC1c1ccccc1` (stereo not drawn), the “diameter of the inhibition zone (DIZ)” value with Klebsiella pneumoniae [1], in the experiment on Klebsiella pneumoniae [2], with Penicillium chrysogenum [3], with Bacillus subtilis [4], in the experiment with Aspergillus niger [5] and in the experiment on Staphylococcus aureus [6] was “inactive” in each case. For the same compound, the “diameter of the inhibition zone (DIZ)” value with Aspergillus niger [7], in the experiment on Bacillus subtilis [8], with Staphylococcus aureus [9], with Penicillium chrysogenum [10], in the experiment on Pseudomonas aeruginosa [11] and in the experiment with Pseudomonas aeruginosa [12] was “inactive” in each case.
Regarding `Cc1ccc(-c2csc(NC(=O)c3n[nH]cc3-c3ccccc3)n2)cc1`, the zone of inhibition at 100 µg/disc was 15 mm with Klebsiella pneumoniae [1]; 11 mm with Aspergillus niger [7]; 13 mm with Bacillus subtilis [8]; 11 mm in the experiment with Staphylococcus aureus [9]; 13 mm with Penicillium chrysogenum [10]; 11 mm in the experiment with Pseudomonas aeruginosa [11]. Also, the zone of inhibition at 50 µg/disc turned out to be 13 mm with Klebsiella pneumoniae [2]; 10 mm in the experiment with Penicillium chrysogenum [3]; 10 mm with Bacillus subtilis [4]; 8 mm in the experiment on Aspergillus niger [5]; 9 mm in the experiment with Staphylococcus aureus [6]; 8 mm with Pseudomonas aeruginosa [12].
As for `O=C(/C=C/c1ccccc1)Nc1nc(-c2ccc(Cl)cc2)co1`, the zone of inhibition at 100 µg/disc in the experiment on Klebsiella pneumoniae [1] worked out at 27 mm; with Aspergillus niger [7] it was 28 mm; with Bacillus subtilis [8], 24 mm; in the experiment with Staphylococcus aureus [9], 25 mm; in the experiment on Penicillium chrysogenum [10], 30 mm; in the experiment on Pseudomonas aeruginosa [11], 22 mm. For the same compound, the zone of inhibition at 50 µg/disc was 24 mm with Klebsiella pneumoniae [2]; 27 mm with Penicillium chrysogenum [3]; 20 mm with Bacillus subtilis [4]; 25 mm with Aspergillus niger [5]; 22 mm with Staphylococcus aureus [6]; 21 mm with Pseudomonas aeruginosa [12].
For the compound `O=C(/C=C/c1ccccc1)Nc1nc(-c2ccccc2)cs1`, the zone of inhibition at 100 µg/disc in the experiment on Klebsiella pneumoniae [1] was found to be 28 mm; in the experiment on Aspergillus niger [7] it was 24 mm; in the experiment on Bacillus subtilis [8], 26 mm; in the experiment on Staphylococcus aureus [9], 23 mm; in the experiment with Penicillium chrysogenum [10], 26 mm; with Pseudomonas aeruginosa [11] it was 18 mm. Further, the zone of inhibition at 50 µg/disc in the experiment on Klebsiella pneumoniae [2] turned out to be 26 mm; in the experiment with Penicillium chrysogenum [3], 23 mm; in the experiment with Bacillus subtilis [4], 24 mm; with Aspergillus niger [5], 21 mm; in the experiment with Staphylococcus aureus [6] it was 21 mm; with Pseudomonas aeruginosa [12], 17 mm.
Regarding `Cc1ccc(-c2coc(NC(=O)C3=NNCC3c3ccccc3)n2)cc1` (stereo not drawn), the “diameter of the inhibition zone (DIZ)” value in the experiment on Klebsiella pneumoniae [1], in the experiment with Klebsiella pneumoniae [2], in the experiment on Penicillium chrysogenum [3], in the experiment on Bacillus subtilis [4], in the experiment with Aspergillus niger [5] and in the experiment on Staphylococcus aureus [6] was “inactive” in each case. Further, the “diameter of the inhibition zone (DIZ)” value in the experiment with Aspergillus niger [7], in the experiment with Bacillus subtilis [8], in the experiment with Staphylococcus aureus [9], in the experiment on Penicillium chrysogenum [10], in the experiment with Pseudomonas aeruginosa [11] and with Pseudomonas aeruginosa [12] was “inactive” throughout.
`Cc1ccc(-c2csc(NC(=O)/C=C/c3ccccc3)n2)cc1`: the zone of inhibition at 100 µg/disc came out at 27 mm in the experiment on Klebsiella pneumoniae [1]; 23 mm in the experiment with Aspergillus niger [7]; 25 mm in the experiment on Bacillus subtilis [8]; 22 mm in the experiment with Staphylococcus aureus [9]; 25 mm in the experiment with Penicillium chrysogenum [10]; 17 mm in the experiment on Pseudomonas aeruginosa [11]. In addition, the zone of inhibition at 50 µg/disc with Klebsiella pneumoniae [2] turned out to be 25 mm; in the experiment with Penicillium chrysogenum [3], 22 mm; in the experiment with Bacillus subtilis [4], 23 mm; in the experiment on Aspergillus niger [5], 19 mm; in the experiment with Staphylococcus aureus [6], 20 mm; in the experiment with Pseudomonas aeruginosa [12], 15 mm.
Take `O=C(Nc1nc(-c2ccc(Cl)cc2)cs1)c1n[nH]cc1-c1ccccc1`: the zone of inhibition at 100 µg/disc in the experiment on Klebsiella pneumoniae [1] turned out to be 33 mm; with Aspergillus niger [7], 32 mm; in the experiment on Bacillus subtilis [8], 31 mm; with Staphylococcus aureus [9], 29 mm; with Penicillium chrysogenum [10], 34 mm; in the experiment on Pseudomonas aeruginosa [11], 26 mm. For the same compound, the zone of inhibition at 50 µg/disc with Klebsiella pneumoniae [2] is 30 mm; in the experiment on Penicillium chrysogenum [3], 31 mm; in the experiment with Bacillus subtilis [4], 28 mm; in the experiment with Aspergillus niger [5], 30 mm; in the experiment on Staphylococcus aureus [6], 27 mm; in the experiment on Pseudomonas aeruginosa [12], 24 mm.
Take `O=C(Nc1nc(-c2ccc(Cl)cc2)co1)C1=NNCC1c1ccccc1` (stereo not drawn): the zone of inhibition at 100 µg/disc in the experiment on Klebsiella pneumoniae [1] turned out to be 24 mm; in the experiment on Aspergillus niger [7], 25 mm; in the experiment on Bacillus subtilis [8] it was 20 mm; with Staphylococcus aureus [9], 18 mm; in the experiment with Penicillium chrysogenum [10], 27 mm; in the experiment on Pseudomonas aeruginosa [11] it was 19 mm. Further, the zone of inhibition at 50 µg/disc in the experiment on Klebsiella pneumoniae [2] amounted to 22 mm; in the experiment on Penicillium chrysogenum [3] it was 24 mm; in the experiment on Bacillus subtilis [4] it was 17 mm; in the experiment with Aspergillus niger [5], 23 mm; with Staphylococcus aureus [6], 17 mm; with Pseudomonas aeruginosa [12] it was 17 mm.
For `Cc1ccc(-c2coc(NC(=O)c3c[nH]cc3-c3ccccc3)n2)cc1`, the “diameter of the inhibition zone (DIZ)” value with Klebsiella pneumoniae [1], with Klebsiella pneumoniae [2], with Penicillium chrysogenum [3], in the experiment on Bacillus subtilis [4], with Aspergillus niger [5] and in the experiment with Staphylococcus aureus [6] was “inactive” each time. Besides, the “diameter of the inhibition zone (DIZ)” value in the experiment on Aspergillus niger [7], with Bacillus subtilis [8], in the experiment on Staphylococcus aureus [9], with Penicillium chrysogenum [10], in the experiment with Pseudomonas aeruginosa [11] and with Pseudomonas aeruginosa [12] was “inactive” each time.
